Measurements as given in patent US20240254109A1, “SALT CONTAINING PIPERAZINE POLYCYCLIC DERIVATIVE, CRYSTAL FORM THEREOF, PREPARATION METHOD THEREFOR, AND USE THEREOF” (Shanghai Hansoh Biomedical Co., Ltd., priority 2021, published 2024).
Where a name gives a salt, the structure may show the parent alone.

Legend:
[1] = Hygroscopicity experiment of crystal form A of hydrochloride; type: physicochemical
Text: 5 Hygroscopicity Experiment

[2] = Pharmacokinetics study in rats; type: in vivo
Text: 8. Pharmacokinetics Study in Rats

[3] = Solid stability experiment of crystal form of salt; type: physicochemical
Method: 4. Solid Stability Experiment
The physicochemical stability of crystal form of salt of compound N-(trans-3-(2-(4-(2,3-dichlorophenyl)piperazin-1-yl)ethyl)cyclobutyl)oxazole-2-carboxamide under the conditions of light 50001×, high temperature 60° C., high humidity 92.5% RH and high temperature and high humidity 50° C. 75% RH was investigated, which provided a basis for crystal form screening and compound crystal form storage.
About 1 mg of different crystal forms of salt were taken and placed under the conditions of light 50001×, high temperature 60° C., high humidity 92.5% RH, high temperature and high humidity 50° C. 75% RH for 5 days and 10 days. The salt content was determined by HPLC and external standard method, and the change of relevant substances was calculated by chromatographic peak area normalization method.

[4] = Crystal form stability study of hydrochloride for 30 days; type: physicochemical; conditions: 30 days
Method: 9. Crystal Form Stability Study of Hydrochloride for 30 Days
The 30 days stability of hydrochloride of N-(trans-3-(2-(4-(2,3-dichlorophenyl)piperazin-1-yl)ethyl)cyclobutyl)oxazole-2-carboxamide under four conditions of 60° C. (closed), 40° C. & RH 75% (open), 25° C./RH 92.5% (open) and light (5000±500 Lux) was detected, which provided scientific basis for the production, packaging, storage and transportation conditions of drugs.
The diluent 80% methanol solution was added to prepare a solution containing about 0.5 mg/mL hydrochloride. The mixture was sonicated for 30 min to produce a clear solution. 1 mL of the solution was filtered and measured by HPLC. See “2.3.4” for the HPLC analysis method. The content of related substances was calculated according to the peak area normalization method, and the results are shown in Table 32 below.

[5] = Salt form quantification by HPLC-ELSD; type: physicochemical
Method: 7. Salt Form Quantification
The number of acids binding in the salt form was quantified by HPLC-ELSD test.
An appropriate amount of NaCl was weighed, and a series of linear solutions of different concentrations with the diluent acetonitrile-water (50:50) was prepared.
The above linear solution and hydrochloride samples solution was taken to filter.
7.3 Experimental results: The content of hydrochloric acid in hydrochloride was calculated according to the external standard method, and the quantitative results of hydrochloride are shown in Table 30.

[6] = Thermodynamic stability experiment of crystal form (pulping in solvents); type: physicochemical; conditions: for Results (crystal form after pulping, XRPD): pulped 1 week at room temperature and 50° C.
Method: 6. Thermodynamic Stability Experiment of Crystal Form
An organic solvent with a certain solubility was selected. […] The supernatant was discarded, and the solid was dried in vacuum (−0.1 Mpa) overnight at 50° C. The XRPD of the solid was determined and compared with XRPD of raw compound salt.

[7] = Pressure crystal transformation test; type: physicochemical; conditions: before and after pressure, tablet press at maximum pressure
Text: 4.5 Pressure Crystal Transformation Test
The tablet press was adjusted to the maximum pressure. It was pressed into a tablet and then was subjected to PXRD characterization.

[8] = Grinding crystal transformation test; type: physicochemical; conditions: before and after grinding in a mortar for 5 min
Text: 4.6 Grinding Crystal Transformation Test

[9] = High humidity, 5 Days, listed as Crystal form A of hydrochloride
[10] = High temperature and high humidity, 5 Days
[11] = High temperature and high humidity, 10 Days
[12] = Light, 5 Days, listed as Crystal form A of hydrochloride
[13] = Light, 10 Days, listed as Crystal form A of hydrochloride
[14] = light, 60° C., 92.5% RH, 50° C. 75% RH, 5 and 10 days
[15] = light, 60° C., 92.5% RH, 40° C. & 75% RH

For O=C(N[C@H]1C[C@H](CCN2CCN(c3cccc(Cl)c3Cl)CC2)C1)c1ncco1 [crystal form A of hydrochloride, N-(trans-3-(2-(4-(2,3-dichlorophenyl)piperazin-1-yl)ethyl)cyclobutyl)oxazole-2-carboxamide], the “stability in humid environments” value [1] was “stable in humid environments”, the exposure versus dose ([2]; dose of 100 mg/kg and 30 mg/kg) was “dose-related” and the “in vivo exposure compared with crystal form B of free base” value ([2]; gavage) was “increased”. The “Maximum single impurity increase %” value [3, 9] was 0.06%, the “Total impurity increase %” value [3, 9] was 0.06% and the “Maximum single impurity increase %” value ([3]; High humidity, 10 Days) was less than 0.02%. The “Total impurity increase %” value ([3]; High humidity, 10 Days) was less than 0.02%, the “Maximum single impurity increase %” value [3, 10] was less than 0.02% and the “Total impurity increase %” value [3, 10] was less than 0.02%. The “Maximum single impurity increase %” value [3, 11] was less than 0.02%, the “Total impurity increase %” value [3, 11] was less than 0.02% and the “Maximum single impurity increase %” value ([3]; High temperature, 5 Days) was less than 0.02%. For the same compound, the “Total impurity increase %” value ([3]; High temperature, 5 Days) was less than 0.02%, the “Maximum single impurity increase %” value ([3]; High temperature, 10 Days) was less than 0.02% and the “Total impurity increase %” value ([3]; High temperature, 10 Days, listed as Crystal form A of hydrochloride) was 0.03%. For the same compound, the “Maximum single impurity increase %” value [3, 12] was less than 0.02%, the “Total impurity increase %” value [3, 12] was less than 0.02% and the “Maximum single impurity increase %” value [3, 13] was less than 0.02%. For the same compound, the “Total impurity increase %” value [3, 13] was less than 0.02%, the crystal form stability [3, 14] was “stable under all conditions” and the impurities [3, 14] was “not significantly increased”. The stability [4] was “good stability”, the “crystal form change (PXRD)” value [4, 15] was “does not undergo crystal form change” and the “impurities (HPLC)” value [4, 15] was “do not increase significantly”. The “Determination of Cl-percentage content in hydrochloride” value ([5]; Batch 1) was 7.82%, the “Determination of Cl-percentage content in hydrochloride” value ([5]; Batch 2) was 7.90% and the “thermodynamic stability of crystal form” value [6] was “thermodynamically stable crystal form”. For the same compound, the “Results (crystal form after pulping, XRPD)” value (“Results” below) ([6]; 1,4-Dioxane) was “Crystal form A”, the “crystal form after being pulped by different solvents” value ([6]; 1 week, room temperature and 50° C.) was “does not change” and the “Results” value ([6]; 2-Butanone) was “Crystal form A”. The “Results” value ([6]; 2-Methyl-tetrahydrofuran) was “Crystal form A”, the “Results” value ([6]; Acetone) was “Crystal form A” and the “Results” value ([6]; Acetonitrile) was “Crystal form A”. For the same compound, the “Results” value ([6]; Dichloromethane) was “Crystal form A”, the “Results” value ([6]; Ethanol) was “Crystal form A” and the “Results” value ([6]; Ethyl acetate) was “Crystal form A”. The “Results” value ([6]; Ethyl formate) was “Crystal form A”, the “Results” value ([6]; Isopropanol) was “Crystal form A” and the “Results” value ([6]; Methanol) was “Crystal form A”. The “Results” value ([6]; Methyl tert-butyl ether) was “Crystal form A”, the “Results” value ([6]; Tetrahydrofuran) was “Crystal form A” and the “Results” value ([6]; Toluene) was “Crystal form A”. The “Results” value ([6]; n-Heptane) was “Crystal form A”, the “crystal transformation (PXRD)” value [7] was “didn't undergo crystal transformation” and the “crystal transformation (PXRD)” value [8] was “didn't undergo crystal transformation”.
